Source: ChEMBL document CHEMBL1649206, “Emerging Klebsiella pneumoniae isolates coproducing KPC-2 and VIM-1 carbapenemases” (2009)
Values after ≈ are worked out from the molar mass of the structure shown.

Legend:
Klebsiella pneumoniae [1] = experiment: Antimicrobial activity against Klebsiella pneumoniae isolate H-1406 expressing VIM-1 and KPC-2 genes by microdilution method in presence of beta-lactamase inhibitor clavulanic acid; type: functional
Klebsiella pneumoniae [2] = experiment: Antimicrobial activity against Klebsiella pneumoniae isolate T-1504 expressing VIM-1 and KPC-2 genes by microdilution method; type: functional
Klebsiella pneumoniae [3] = experiment: Antimicrobial activity against Klebsiella pneumoniae isolate T-1780 expressing VIM-1 and KPC-2 genes by microdilution method; type: functional
Klebsiella pneumoniae [4] = experiment: Antimicrobial activity against Klebsiella pneumoniae isolate A-1760 expressing VIM-1 and KPC-2 genes by microdilution method in presence of beta-lactamase inhibitor clavulanic acid; type: functional
Klebsiella pneumoniae [5] = experiment: Antimicrobial activity against Klebsiella pneumoniae isolate A-1797 expressing VIM-1 and KPC-2 genes by microdilution method in presence of beta-lactamase inhibitor clavulanic acid; type: functional
Klebsiella pneumoniae [6] = experiment: Antimicrobial activity against Klebsiella pneumoniae isolate T-1504 expressing VIM-1 and KPC-2 genes by microdilution method in presence of beta-lactamase inhibitor clavulanic acid; type: functional
Klebsiella pneumoniae [7] = experiment: Antimicrobial activity against Klebsiella pneumoniae isolate T-1780 expressing VIM-1 and KPC-2 genes by microdilution method in presence of beta-lactamase inhibitor clavulanic acid; type: functional
Klebsiella pneumoniae [8] = experiment: Antimicrobial activity against Klebsiella pneumoniae isolate H-1406 expressing VIM-1 and KPC-2 genes by microdilution method; type: functional
Klebsiella pneumoniae [9] = experiment: Antimicrobial activity against Klebsiella pneumoniae isolate T-1504 expressing VIM-1 and KPC-2 genes by microdilution method in presence of beta-lactamase inhibitor Tazobactam; type: functional
Klebsiella pneumoniae [10] = experiment: Antimicrobial activity against Klebsiella pneumoniae isolate A-1760 expressing VIM-1 and KPC-2 genes by microdilution method in presence of beta-lactamase inhibitor Tazobactam; type: functional
Klebsiella pneumoniae [11] = experiment: Antimicrobial activity against Klebsiella pneumoniae isolate A-1797 expressing VIM-1 and KPC-2 genes by microdilution method in presence of beta-lactamase inhibitor Tazobactam; type: functional
Klebsiella pneumoniae [12] = experiment: Antimicrobial activity against Klebsiella pneumoniae isolate T-1780 expressing VIM-1 and KPC-2 genes by microdilution method in presence of beta-lactamase inhibitor Tazobactam; type: functional
Klebsiella pneumoniae [13] = experiment: Antimicrobial activity against Klebsiella pneumoniae isolate H-1406 expressing VIM-1 and KPC-2 genes by microdilution method in presence of beta-lactamase inhibitor Tazobactam; type: functional
[14] = target: Carbapenem-hydrolyzing beta-lactamase KPC (Klebsiella pneumoniae) (UniProt Q9F663); experiment: Activity of KPC-2 in Klebsiella pneumoniae isolate T-1504 assessed as compound hydrolysis in presence of EDTA; set-up: scale not given: the % may be the effect or the level left
[15] = target: Metallo-beta-lactamase (Klebsiella pneumoniae) (UniProt Q5GN09); experiment: Activity of VIM-1 in Klebsiella pneumoniae isolate A-1760
[16] = target: Carbapenem-hydrolyzing beta-lactamase KPC (Klebsiella pneumoniae) (UniProt Q9F663); experiment: Activity of KPC-2 in Klebsiella pneumoniae isolate T-1780
[17] = target: Carbapenem-hydrolyzing beta-lactamase KPC (Klebsiella pneumoniae) (UniProt Q9F663); experiment: Activity of KPC-2 in Klebsiella pneumoniae isolate T-1504
[18] = target: Metallo-beta-lactamase (Klebsiella pneumoniae) (UniProt Q5GN09); experiment: Activity of VIM-1 in Klebsiella pneumoniae isolate H-1406
[19] = target: Metallo-beta-lactamase (Klebsiella pneumoniae) (UniProt Q5GN09); experiment: Activity of VIM-1 in Klebsiella pneumoniae isolate A-1760 assessed as compound hydrolysis in presence of EDTA; set-up: scale not given: the % may be the effect or the level left
[20] = target: Metallo-beta-lactamase (Klebsiella pneumoniae) (UniProt Q5GN09); experiment: Activity of VIM-1 in Klebsiella pneumoniae isolate H-1406 assessed as compound hydrolysis in presence of EDTA; set-up: scale not given: the % may be the effect or the level left
[21] = target: Carbapenem-hydrolyzing beta-lactamase KPC (Klebsiella pneumoniae) (UniProt Q9F663); experiment: Activity of KPC-2 in Klebsiella pneumoniae isolate H-1406 assessed as compound hydrolysis in presence of EDTA; set-up: scale not given: the % may be the effect or the level left
[22] = target: Metallo-beta-lactamase (Klebsiella pneumoniae) (UniProt Q5GN09); experiment: Activity of VIM-1 in Klebsiella pneumoniae isolate A-1797
[23] = target: Metallo-beta-lactamase (Klebsiella pneumoniae) (UniProt Q5GN09); experiment: Activity of VIM-1 in Klebsiella pneumoniae isolate A-1797 assessed as compound hydrolysis in presence of EDTA; set-up: scale not given: the % may be the effect or the level left
[24] = target: Metallo-beta-lactamase (Klebsiella pneumoniae) (UniProt Q5GN09); experiment: Activity of VIM-1 in Klebsiella pneumoniae isolate T-1780 assessed as compound hydrolysis in presence of EDTA; set-up: scale not given: the % may be the effect or the level left
Klebsiella pneumoniae [25] = experiment: Antimicrobial activity against Klebsiella pneumoniae isolate A-1797 expressing VIM-1 and KPC-2 genes by microdilution method; type: functional
Klebsiella pneumoniae [26] = experiment: Antimicrobial activity against Klebsiella pneumoniae isolate A-1760 expressing VIM-1 and KPC-2 genes by microdilution method; type: functional
[27] = target: Metallo-beta-lactamase (Klebsiella pneumoniae) (UniProt Q5GN09); experiment: Activity of VIM-1 in Klebsiella pneumoniae isolate T-1780
[28] = target: Carbapenem-hydrolyzing beta-lactamase KPC (Klebsiella pneumoniae) (UniProt Q9F663); experiment: Activity of KPC-2 in Klebsiella pneumoniae isolate T-1780 assessed as compound hydrolysis in presence of EDTA; set-up: scale not given: the % may be the effect or the level left
[29] = target: Carbapenem-hydrolyzing beta-lactamase KPC (Klebsiella pneumoniae) (UniProt Q9F663); experiment: Activity of KPC-2 in Klebsiella pneumoniae isolate H-1406

Carbapenem-hydrolyzing beta-lactamase KPC (Klebsiella pneumoniae), sequence (Q9F663 whole entry): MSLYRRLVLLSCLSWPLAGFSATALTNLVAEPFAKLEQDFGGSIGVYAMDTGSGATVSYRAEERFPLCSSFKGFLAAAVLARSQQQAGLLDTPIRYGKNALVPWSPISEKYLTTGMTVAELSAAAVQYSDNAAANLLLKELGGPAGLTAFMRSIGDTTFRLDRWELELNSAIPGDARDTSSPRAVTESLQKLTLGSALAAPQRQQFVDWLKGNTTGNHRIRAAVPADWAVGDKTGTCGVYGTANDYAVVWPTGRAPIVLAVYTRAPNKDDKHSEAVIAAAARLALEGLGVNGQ

| SMILES | MIC (Klebsiella pneumoniae [2]) [µg/mL] | MIC (Klebsiella pneumoniae [3]) [µg/mL] | MIC (Klebsiella pneumoniae [8]) [µg/mL] | MIC (Klebsiella pneumoniae [25]) [µg/mL] | MIC (Klebsiella pneumoniae [26]) [µg/mL] | also measured |
| --- | --- | --- | --- | --- | --- | --- |
| CC1(C)S[C@@H]2[C@H](NC(=O)[C@H](C(=O)O)c3ccsc3)C(=O)N2[C@H]1C(=O)O [TICARCILLIN] | 256 (≈ 666 µM) | > 256 | > 256 | – | – | MIC (Klebsiella pneumoniae [1]): 256 µg/mL; MIC (Klebsiella pneumoniae [4]): > 256 µg/mL; MIC (Klebsiella pneumoniae [5]): > 256 µg/mL; MIC (Klebsiella pneumoniae [6]): 8 µg/mL; MIC (Klebsiella pneumoniae [7]): > 256 µg/mL |
| CCN1CCN(C(=O)N[C@@H](C(=O)N[C@@H]2C(=O)N3[C@@H]2SC(C)(C)[C@@H]3C(=O)O)c2ccccc2)C(=O)C1=O [PIPERACILLIN] | 128 (≈ 247 µM) | > 256 | – | – | – | MIC (Klebsiella pneumoniae [9]): 64 µg/mL; MIC (Klebsiella pneumoniae [10]): > 256 µg/mL; MIC (Klebsiella pneumoniae [11]): > 256 µg/mL; MIC (Klebsiella pneumoniae [12]): > 256 µg/mL; MIC (Klebsiella pneumoniae [13]): > 256 µg/mL |
| C[C@@H](O)[C@H]1C(=O)N2C(C(=O)O)=C(S[C@@H]3CN[C@H](C(=O)N(C)C)C3)[C@H](C)[C@H]12 [MEROPENEM] | – | 64 (≈ 167 µM) | 8 (≈ 20.9 µM) | 2 (≈ 5.22 µM) | 64 (≈ 167 µM) | Activity [14]: < 2%; Activity [15]: 80 U; Activity [16]: 76 U; Activity [17]: 31 U; Activity [18]: 55 U; Activity [19]: 100%; Activity [20]: 57%; Activity [21]: 57%; Activity [22]: 42 U; Activity [23]: 80%; Activity [24]: 64%; Activity [27]: 76 U; Activity [28]: 64%; Activity [29]: 55 U |
| CO/N=C(\C(=O)N[C@@H]1C(=O)N2C(C(=O)[O-])=C(C[N+]3(C)CCCC3)CS[C@H]12)c1csc(N)n1 | 16 (≈ 33.3 µM) | > 256 | 128 (≈ 266 µM) | 16 (≈ 33.3 µM) | 256 (≈ 533 µM) | – |
| CO/N=C(\C(=O)N[C@@H]1C(=O)N2C(C(=O)O)=C(COC(C)=O)CS[C@H]12)c1csc(N)n1 [CEFOTAXIME] | 8 (≈ 17.6 µM) | > 256 | 256 (≈ 562 µM) | > 256 | > 256 | – |
| C[C@@H](O)[C@H]1C(=O)N2C(C(=O)O)=C(SCCNC=N)C[C@H]12 [IMIPENEM ANHYDROUS] | 2 (≈ 6.68 µM) | 32 (≈ 107 µM) | 32 (≈ 107 µM) | 2 (≈ 6.68 µM) | 32 (≈ 107 µM) | – |
| C[C@H]1[C@H](NC(=O)/C(=N\OC(C)(C)C(=O)O)c2csc(N)n2)C(=O)N1S(=O)(=O)O [AZTREONAM] | 32 (≈ 73.5 µM) | 64 (≈ 147 µM) | 64 (≈ 147 µM) | 64 (≈ 147 µM) | 0.12 (≈ 0.276 µM) | – |
| CC(C)(O/N=C(\C(=O)N[C@@H]1C(=O)N2C(C(=O)[O-])=C(C[n+]3ccccc3)CS[C@H]12)c1csc(N)n1)C(=O)O [CEFTAZIDIME] | 16 (≈ 29.3 µM) | > 256 | > 256 | > 256 | > 256 | – |
| C[C@@H](O)[C@H]1C(=O)N2C(C(=O)O)=C(S[C@@H]3CN[C@H](C(=O)Nc4cccc(C(=O)O)c4)C3)[C@H](C)[C@H]12 | 32 (≈ 67.3 µM) | > 128 | 64 (≈ 135 µM) | 8 (≈ 16.8 µM) | 64 (≈ 135 µM) | – |
